In patent publication US20260083768A1, “INFLAMMASOME INHIBITION FOR NEUROPROTECTION” (University of Virginia Patent Foundation, priority 2022, published 2026):

Key:
caspase-1 = assay: Retinal cleaved caspase-1 immunoblot in mouse RRD model (inflammasome activation); type: in vivo, mice
Procedure: (§1) RRD was induced in mice via subretinal injection (SRI) of 1% carboxymethylcellulose (CMC). To simulate outcomes following the clinical management of RRD, optimal conditions were determined in which SRI of CMC induced spontaneous retinal reattachment (SRR) over 10 days (RRD/SRR). K-9, 3TC, or AZT was administered via intraperitoneal (IP) injection. Inflammasome activation was monitored by cleaved caspase-1 abundance, and photoreceptor death was assessed by TUNEL staining. Retinal function was assessed by full-field scotopic electroretinography (ERG).
(§2) A persistent RRD model was established by subretinal injection (SRI) of 3 μl 1% carboxymethyl cellulose (CMC; Refresh Liquigel, Allergan, Irvine, CA, USA). The model of RRD/SRR was achieved by SRI of 3 μl 0.03% CMC. SRIs were performed as previously described (23) using a 35-gauge needle (Ito Co., Fuji, Japan).
(§3) NRTIs and K-9 were delivered via intraperitoneal (IP) injection in equimolar amounts. Lamivudine (3TC, 50 mg/kg) or azidothymidine (AZT, 60 mg/kg) was injected twice daily (SelleckChem, Houston, TX, USA). Kamuvudine K-9 (3-methyl-3TC) was synthesized as previously described (21) and administered either at a low dose (K-9L; 90 mg/kg daily) or a high dose (K-9H; 60 mg/kg twice daily, equimolar to NRTI doses). IP injection of phosphate buffered saline (PBS) was used as control. […]

photoreceptors = assay: TUNEL staining of retinal outer nuclear layer in mouse RRD model (photoreceptor death); type: in vivo, mice
Procedure: as §1, §2, §3

[1] = system: retinal electrical function; assay: Full-field scotopic ERG in RRD/SRR mouse model; type: in vivo, mice
Procedure: FIGS. 7A-7D. K-9 improves ERG functional outcomes in RRD/SRR model (A) Experiment overview: the RRD/SRR model was established day 0 (SRI of 3 μl 0.03% CMC). K-9 (60 mg/kg) or PBS was administered days 0-10 twice daily IP. Scotopic ERG was measured at baseline, as well as days 7, 11, and 14. In 7A-D, n=10-12 per group. (B) ERG waveforms representative of the K-9 and PBS groups, at baseline and day 14. (C) Amplitudes of a- and b-waves over time in the K-9 (red) and PBS (blue) groups at the stimulation intensity of 1.0 log cd sec/m2. […] Data (7C-D) is represented as mean±SEM. (D) AA from baseline for PBS (blue) and K-9 (red) groups.
as §1, with “K-9, 3TC, or AZT was administered via intraperitoneal (IP) injection.” left out, “(ERG). […]” for “(ERG).”
ERG was recorded at baseline, as well as days 7, 11, and 14 following SRI of CMC. Mice (n=6) were dark adapted overnight, and then ERG was measured using Ganzfeld ERG (Phoenix Laboratories). […] Responses were recorded to white-flash stimuli ranging from −1.7 to 1.0 log cd s/m2. […]

retinal function = assay: Scotopic ERG in rd10 mouse model of retinal neuronal degeneration; type: in vivo; conditions: rd10 mice; 60 mg/kg twice daily IP, P15 until P28; vs vehicle (PBS)
Procedure: (§4) FIG. 8. K-9 protects retinal function. Starting at postnatal day 15 (P15) until P28, rd10 mice were treated with K-9 at 60 mg/kg twice daily via intraperitoneal injection or with an equal volume of vehicle (PBS). Retinal function was monitored with scotopic electroretinography (ERG).
as §4, with “K-9” for “FIG. 8. K-9”, “function in the rd10 mouse model of retinal neuronal degeneration. rd10 is an autosomal missense R560C mutation in the Pde6b gene, which results in a recessively inherited retinal neuronal degeneration (FIG. 8).” for “function.”

Compound: CCOCC1OC(n2ccc(N(CC)CC)nc2=O)CS1 (stereo not shown) [K-9, 4-(diethylamino)-1-[2-(ethoxymethyl)-1,3-oxathiolan-5-yl]-1,2-dihydropyrimidin-2-one]
- degree of suppression of caspase-1 activation (caspase-1; day 3 RRD model, IP, mean±SEM, K-9 versus NRTIs P<0.05): 84%±1%
- retinal cleaved caspase-1 (caspase-1; three days after inducing RRD (SRI 3 μl 1% CMC), IP treatment, compared with PBS-treated mice): dose-dependent and complete reduction
- degree of photoreceptor protection (photoreceptors; day 3 RRD model, TUNEL, IP, mean±SEM, K-9 versus NRTIs P<0.05): 56%±7%
- number of TUNEL+ cells in the ONL of the retina (photoreceptors; three days after inducing RRD, IP treatment, compared with PBS-treatment): dose-dependent reduction
- retinal electrical function (ERG a- and b-wave amplitudes) ([1]; RRD/SRR model (SRI 3 μl 0.03% CMC), K-9 60 mg/kg twice daily IP days 0-10, ERG days 7-14, vs PBS): preserves retinal electrical function
- ERG parameters following retinal reattachment ([1]; RRD/SRR model, K-9 administered during the period of retinal detachment): improvement
- ERG a-wave and b-wave (retinal function): completed protection
